This note sets out measurements from patent US20250295799A1, “ANTIBODY-DRUG CONJUGATES TARGETING GLYPICAN-3 AND METHODS OF USE” (Zymeworks BC Inc., priority 2022, published 2025).

The subject of test [1] is JHH-7 cells (high GPC3-expressing). The test is described as follows: Internalization by flow cytometry (quenched AF488). Format: cell-based. Particulars: JHH-7; 5 nM; 24 h. On the procedure:
(§1) Cells were seeded at 50,000 cells/well in 48-well plates and incubated overnight under standard culturing conditions (37° C./5% CO2) in Gibco™ Dulbecco's Modified Eagle Media (DMEM) (Thermo Fisher Scientific, Waltham, MA; Cat. No. 11995040) with 10% Fetal Bovine Serum (FBS) (Thermo Fisher Scientific, Waltham, MA; Cat. No. 12483020) for Hep G2 cells, and Gibco™ William's E Medium, GlutaMAX™ Supplement (Thermo Fisher Scientific, Waltham, MA; Cat. No. 32551020) with 10% FBS (Thermo Fisher Scientific, Waltham, MA; Cat. No. 12483020) for JHH-7 cells. Coupled antibodies were added to cells the following day at 10 nM or at 100 nM and incubated under standard culturing conditions for 5-24 hours to allow for internalization. Following incubation, cells were dissociated, washed, and surface AF488 fluorescence was quenched using an anti-AF488 antibody (Life Technologies, Carlsbad, CA; Cat. No. A-11094) at 100 nM for 30 minutes at 4° C. Quenched AF488 fluorescence (internalized fluorescence) was detected by flow cytometry on a BD LSRFortessa™ Cell Analyzer (BD Biosciences, Franklin Lake, NJ) with 1,000 minimum events collected per well.
as §1, with “CO2)” for “CO2) in Gibco™ Dulbecco's Modified Eagle Media (DMEM) (Thermo Fisher Scientific, Waltham, MA; Cat. No. 11995040) with 10% Fetal Bovine Serum (FBS) (Thermo Fisher Scientific, Waltham, MA; Cat. No. 12483020) for Hep G2 cells, and”, “12483020).” for “12483020) for JHH-7 cells.”, “5” for “10 nM or at 100”, “24” for “5-24”, “well. […]” for “well.”
Background: A flow cytometer gives signals particle by particle.

Test [2] relates to GFP-transfected CHO cells. The test is described as follows: Binding to transfected CHO-S cells by flow cytometry (negative transfection control). On the procedure: Briefly, CHO—S cells were transiently transfected for −24 hours with a pTT5-based expression plasmid encoding human GPC3 or cynomolgus monkey GPC3, 0.5 μg DNA per 1 million cells, using the Neon™ Transfection System (Thermo Fisher Scientific Corp., Waltham, MA), to transiently express human or cynomolgus monkey GPC3. Cells transfected with GFP were used as negative transfection controls. Following transfection, cells were seeded at 50,000 cells/well in V-bottom 96-well plates and treated with antibody for 24 hours at 4° C. to prevent internalization. […] Following incubation and washing, fluorescence was detected by flow cytometry on a BD LSRFortessa™ Cell Analyzer (BD Biosciences, Franklin Lake, NJ) with 1,000 minimum events collected per well. AF647/APC-A GeoMean (fluorescence signal geometric mean, proportional to anti-Human AF647 binding) in live cell population was plotted against antibody concentration using GraphPad Prism Version 9 (GraphPad Software, San Diego, CA). The Bmax and Kd values were derived from the “Specific binding with Hill slope” nonlinear regression curve fit in GraphPad Prism Version 9.

Test [3] concerns cynomolgus monkey GPC3 on transfected CHO-S cells. The test is described as follows: Binding to transfected CHO-S cells by flow cytometry. Particulars: 24 h at 4 °C. As to the method:
Briefly, CHO—S cells were transiently transfected for −24 hours with a pTT5-based expression plasmid encoding human GPC3 or cynomolgus monkey GPC3, 0.5 μg DNA per 1 million cells, using the Neon™ Transfection System (Thermo Fisher Scientific Corp., Waltham, MA), to transiently express human or cynomolgus monkey GPC3. Following transfection, cells were seeded at 50,000 cells/well in V-bottom 96-well plates and treated with antibody for 24 hours at 4° C. to prevent internalization. […] Following incubation and washing, fluorescence was detected by flow cytometry on a BD LSRFortessa™ Cell Analyzer (BD Biosciences, Franklin Lake, NJ) with 1,000 minimum events collected per well. AF647/APC-A GeoMean (fluorescence signal geometric mean, proportional to anti-Human AF647 binding) in live cell population was plotted against antibody concentration using GraphPad Prism Version 9 (GraphPad Software, San Diego, CA). The Bmax and Kd values were derived from the “Specific binding with Hill slope” nonlinear regression curve fit in GraphPad Prism Version 9.
Briefly, CHO—S cells were transiently transfected for −24 hours with a pTT5-based expression plasmid encoding human GPC3 or cynomolgus monkey GPC3, 0.5 μg DNA per 1 million cells, using the Neon™ Transfection System (Thermo Fisher Scientific Corp., Waltham, MA), to transiently express human or cynomolgus monkey GPC3. […]

Sequence of cynomolgus monkey GPC3 on transfected CHO-S cells (as listed by the source): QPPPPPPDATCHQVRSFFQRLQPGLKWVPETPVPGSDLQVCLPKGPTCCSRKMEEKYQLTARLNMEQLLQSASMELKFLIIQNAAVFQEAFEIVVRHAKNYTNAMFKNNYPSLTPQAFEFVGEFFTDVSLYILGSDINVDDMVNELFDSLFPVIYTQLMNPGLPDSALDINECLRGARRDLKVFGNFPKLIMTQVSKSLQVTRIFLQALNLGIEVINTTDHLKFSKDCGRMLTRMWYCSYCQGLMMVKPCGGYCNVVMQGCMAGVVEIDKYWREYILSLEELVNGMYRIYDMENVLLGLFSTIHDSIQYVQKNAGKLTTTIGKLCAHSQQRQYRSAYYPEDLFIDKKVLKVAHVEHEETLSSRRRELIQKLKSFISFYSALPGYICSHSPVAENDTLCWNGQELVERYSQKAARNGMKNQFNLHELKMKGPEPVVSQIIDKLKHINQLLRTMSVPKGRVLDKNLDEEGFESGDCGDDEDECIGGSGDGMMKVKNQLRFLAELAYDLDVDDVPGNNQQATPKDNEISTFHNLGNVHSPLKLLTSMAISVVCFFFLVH

As to palivizumab, the “internalization, in words” value in test [1] is listed as “minimal internalization”. Besides, the “binding to GFP-transfected CHO cells, in words” value in test [2] is given as “did not exhibit any binding”. Besides, the “binding to CHO-S cells expressing cynomolgus monkey GPC3, in words” value in test [3] was “did not exhibit any binding”.
